Laboratory results as given in US7820817B2, “Modulators of muscarinic receptors” (Vertex Pharmaceuticals Incorporated, priority 2004, dated 2010).

Test system: at least one muscarinic receptor, M1, M2, M3, M4
Experiment: Muscarinic modulation activity (Table 3)
Type: cell-based
Parameters: key: +++: exhibited muscarinic modulation activity for at least one muscarinic receptor, M1, M2, M3, M4, at a concentration of less than 5 μM; ++: exhibited muscarinic modulation activity for at least one muscarinic receptor, M1, M2, M3, M4, at a concentration of between 30 μM and 5 μM; +: exhibited muscarinic modulation activity for at least one muscarinic receptor, M1, M2, M3, M4, at a concentration of greater than 30 μM; −: were not assayed or did not exhibit muscarinic modulation activity for at least one muscarinic receptor, M1, M2, M3, M4, at the concentration at which the assay was performed
Conditions: concentration at which modulation of at least one muscarinic receptor, M1, M2, M3, M4, was exhibited; CHO cells
How it was run: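 CHO cells expressing M1–M5 loaded with Fluo-3 AM or Calcium 3 dye plus 1 mM probenecid; FLIPR fluorescence read for 60 sec after compound addition (agonist mode) or after 15 min pre-incubation then carbachol at EC80 (inhibition mode); 0.5% DMSO final.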

Row | Structure (SMILES) | ACTIVITY (muscarinic modulation activity)
1 | NS(=O)(=O)c1cnccc1N1CCN(CC2CC3CCC2C3)CC1 (stereo not drawn) [Compound 55, 4-[4-(norbornan-2-ylmethyl)piperazin-1-yl]pyridine-3-sulfonamide] | ++ (exhibited muscarinic modulation activity for at least one muscarinic receptor, M1, M2, M3, M4, at a concentration of between 30 μM and 5 μM)
2 | CCOC(=O)N1C2CCC1CC(N1CCN(c3cc(C#N)ccn3)CC1)C2 (stereo not drawn) [Compound 56, 3-[4-(4-cyano-2-pyridyl)piperazin-1-yl]-8-azabicyclo[3.2.1]octane-8-carboxylic acid ethyl ester] | +++ (exhibited muscarinic modulation activity for at least one muscarinic receptor, M1, M2, M3, M4, at a concentration of less than 5 μM)
3 | CCOC(=O)N1C2CCC1CC(N1CCC(c3nc(OC)cc(OC)n3)CC1)C2 (stereo not drawn) [Compound 57, 3-[4-(4,6-dimethoxypyrimidin-2-yl)-1-piperidyl]-8-azabicyclo[3.2.1]octane-8-carboxylic acid ethyl ester] | +++ (exhibited muscarinic modulation activity for at least one muscarinic receptor, M1, M2, M3, M4, at a concentration of less than 5 μM)
4 | CCOC(=O)N1C2CCC1CC(N1CCN(c3nc(Cl)cc(C(F)(F)F)c3C#N)CC1)C2 (stereo not drawn) [Compound 58, 3-[4-[6-chloro-3-cyano-4-(trifluoromethyl)-2-pyridyl]piperazin-1-yl]-8-azabicyclo[3.2.1]octane-8-carboxylic acid ethyl ester] | −
5 | N#Cc1cc(-c2ccccc2)nnc1N1CCN(CC2CC3CCC2C3)CC1 (stereo not drawn) [Compound 59, 3-[4-(norbornan-2-ylmethyl)piperazin-1-yl]-6-phenyl-pyridazine-4-carbonitrile] | + (exhibited muscarinic modulation activity for at least one muscarinic receptor, M1, M2, M3, M4, at a concentration of greater than 30 μM)
6 | Cc1cccnc1N1CCN(C2CC3CCC2C3)CC1 (stereo not drawn) [Compound 60, 1-(3-methyl-2-pyridyl)-4-norbornan-2-yl-piperazine] | + (exhibited muscarinic modulation activity for at least one muscarinic receptor, M1, M2, M3, M4, at a concentration of greater than 30 μM)
7 | c1cc(N2CCN(C3CCC4CCC3C4)CC2)ccn1 (stereo not drawn) [Compound 61, 1-(2-bicyclo[3.2.1]octyl)-4-(4-pyridyl)piperazine] | −
8 | Cc1ccc(C#N)c(N2CCN(CC3CC4C=CC3C4)CC2)n1 (stereo not drawn) [Compound 62, 2-[4-(5-bicyclo[2.2.1]hept-2-enylmethyl)piperazin-1-yl]-6-methyl-nicotinonitrile] | +++ (exhibited muscarinic modulation activity for at least one muscarinic receptor, M1, M2, M3, M4, at a concentration of less than 5 μM)
9 | Cc1nccnc1N1CCN(C2CC3CCC2C3)CC1 (stereo not drawn) [Compound 63, 2-methyl-3-(4-norbornan-2-ylpiperazin-1-yl)-pyrazine] | + (exhibited muscarinic modulation activity for at least one muscarinic receptor, M1, M2, M3, M4, at a concentration of greater than 30 μM)
10 | N#Cc1cccnc1N1CCN(CC2CCC3CCC2C3)CC1 (stereo not drawn) [Compound 64, 2-[4-(4-bicyclo[3.2.1]octylmethyl)piperazin-1-yl]nicotinonitrile] | + (exhibited muscarinic modulation activity for at least one muscarinic receptor, M1, M2, M3, M4, at a concentration of greater than 30 μM)
11 | c1ccc(N2CCN(C3CC4CCC3C4)CC2)nc1 (stereo not drawn) [Compound 65, 1-norbornan-2-yl-4-(2-pyridyl)piperazine] | ++ (exhibited muscarinic modulation activity for at least one muscarinic receptor, M1, M2, M3, M4, at a concentration of between 30 μM and 5 μM)
12 | CCOC(=O)N1C2CCC1CC(N1CCN(c3ccc(C#N)cn3)CC1)C2 (stereo not drawn) [Compound 66, 3-[4-(5-cyano-2-pyridyl)piperazin-1-yl]-8-azabicyclo[3.2.1]octane-8-carboxylic acid ethyl ester] | +++ (exhibited muscarinic modulation activity for at least one muscarinic receptor, M1, M2, M3, M4, at a concentration of less than 5 μM)
13 | CCOC(=O)N1C2CCC1CC(N1CCN(c3ncc(CC)cn3)CC1)C2 (stereo not drawn) [Compound 67, 3-[4-(5-ethylpyrimidin-2-yl)piperazin-1-yl]-8-azabicyclo[3.2.1]octane-8-carboxylic acid ethyl ester] | +++ (exhibited muscarinic modulation activity for at least one muscarinic receptor, M1, M2, M3, M4, at a concentration of less than 5 μM)
14 | CCOC(=O)N1C2CCC1CC(CN1CCN(c3ncccc3C#N)CC1)C2 (stereo not drawn) [Compound 68, 3-[[4-(3-cyano-2-pyridyl)piperazin-1-yl]methyl]-8-azabicyclo[3.2.1]octane-8-carboxylic acid ethyl ester] | +++ (exhibited muscarinic modulation activity for at least one muscarinic receptor, M1, M2, M3, M4, at a concentration of less than 5 μM)
15 | FC(F)(F)c1cccnc1N1CCN(CC2CC3C=CC2C3)CC1 (stereo not drawn) [Compound 69, 1-(5-bicyclo[2.2.1]hept-2-enylmethyl)-4-[3-(trifluoromethyl)-2-pyridyl]-piperazine] | +++ (exhibited muscarinic modulation activity for at least one muscarinic receptor, M1, M2, M3, M4, at a concentration of less than 5 μM)
16 | N#Cc1nccnc1N1CCN(CC2CC3C=CC2C3)CC1 (stereo not drawn) [Compound 70, 3-[4-(5-bicyclo[2.2.1]hept-2-enylmethyl)piperazin-1-yl]pyrazine-2-carbonitrile] | +++ (exhibited muscarinic modulation activity for at least one muscarinic receptor, M1, M2, M3, M4, at a concentration of less than 5 μM)
17 | c1cnc(N2CCN(C3CC4CCC3C4)CC2)nc1 (stereo not drawn) [Compound 71, 2-(4-norbornan-2-ylpiperazin-1-yl)pyrimidine] | ++ (exhibited muscarinic modulation activity for at least one muscarinic receptor, M1, M2, M3, M4, at a concentration of between 30 μM and 5 μM)
18 | Cc1cc(C)nc(N2CCN(C3CC4CCC3C4)CC2)n1 (stereo not drawn) [Compound 72, 4,6-dimethyl-2-(4-norbornan-2-ylpiperazin-1-yl)-pyrimidine] | −
19 | Cc1nc(N2CCN(CC3CC4CCC3C4)CC2)c(C#N)cc1-c1ccccc1 (stereo not drawn) [Compound 73, 6-methyl-2-[4-(norbornan-2-ylmethyl)piperazin-1-yl]-5-phenyl-nicotinonitrile] | −
20 | FC(F)(F)c1cnc(N2CCN(CC3CC4C=CC3C4)CC2)c(Cl)c1 (stereo not drawn) [Compound 74, 1-(5-bicyclo[2.2.1]hept-2-enylmethyl)-4-[3-chloro-5-(trifluoromethyl)-2-pyridyl]-piperazine] | −
21 | c1cc(N2CCN(C3C4CC5CC(C4)CC3C5)CC2)ccn1 (stereo not drawn) [Compound 75, 1-(2-adamantyl)-4-(4-pyridyl)piperazine] | ++ (exhibited muscarinic modulation activity for at least one muscarinic receptor, M1, M2, M3, M4, at a concentration of between 30 μM and 5 μM)
22 | C1=CC2CC1CC2CN1CCN(c2ncccn2)CC1 (stereo not drawn) [Compound 76, 2-[4-(5-bicyclo[2.2.1]hept-2-enylmethyl)piperazin-1-yl]pyrimidine] | +++ (exhibited muscarinic modulation activity for at least one muscarinic receptor, M1, M2, M3, M4, at a concentration of less than 5 μM)
23 | Cc1cccc(N2CCN(C3CC4CCC3C4)CC2)n1 (stereo not drawn) [Compound 77, 1-(6-methyl-2-pyridyl)-4-norbornan-2-yl-piperazine] | −
24 | CCOC(=O)N1C2CCC1CC(N1CCN(c3nc(C)cc(C)c3C#N)CC1)C2 (stereo not drawn) [Compound 78, 3-[4-(3-cyano-4,6-dimethyl-2-pyridyl)piperazin-1-yl]-8-azabicyclo[3.2.1]octane-8-carboxylic acid ethyl ester] | ++ (exhibited muscarinic modulation activity for at least one muscarinic receptor, M1, M2, M3, M4, at a concentration of between 30 μM and 5 μM)
